This note sets out measurements from patent US8183239B2, “Substituted piperazines and piperidines as modulators of the neuropeptide Y2 receptor” (Janssen Pharmaceutica NV, priority 2005, dated 2012).

The assay has as its target T1, Y2 receptors (Homo sapiens, UniProt P49146).
T1 construct: endogenous in cells; host or cells: KAN-Ts cells (membranes)
T1 sequence (P49146 1-381): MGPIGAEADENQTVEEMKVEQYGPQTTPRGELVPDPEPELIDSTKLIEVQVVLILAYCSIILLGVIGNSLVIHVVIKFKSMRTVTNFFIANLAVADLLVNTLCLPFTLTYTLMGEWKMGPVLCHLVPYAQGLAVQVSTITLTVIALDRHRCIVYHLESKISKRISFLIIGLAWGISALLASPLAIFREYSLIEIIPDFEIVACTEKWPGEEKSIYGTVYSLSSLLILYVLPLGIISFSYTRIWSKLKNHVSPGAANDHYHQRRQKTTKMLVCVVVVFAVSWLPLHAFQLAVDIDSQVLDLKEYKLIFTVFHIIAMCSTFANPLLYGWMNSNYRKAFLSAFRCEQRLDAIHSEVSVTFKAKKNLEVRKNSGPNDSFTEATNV
In words: Radioligand binding assay ([125I]PYY, KAN-Ts cell membranes). As to conditions: Table 1, [125I]PYY 80 pM, average of results, read-out: IC50. The procedure, abridged: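 IC50 values are means of three to eight experiments run in duplicate, fitted sigmoidally against specific binding (defined by […]). Competition used 80 pM [^125I]PYY for 1 h at room temperature on KAN-Ts membranes carrying native Y2, with filtration and scintillation counting.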
With `CCNC(=O)C(c1ccccc1)N1CCN(c2ccc(NC(=O)/C=C\c3ccccc3OC)cc2F)CC1` (centres unmarked) [Example 97, (Z)—N-{4-[4-(Ethylcarbamoyl-phenyl-methyl)-piperazin-1-yl]-3-fluoro-phenyl}-3-(2-methoxy-phenyl)-acryl amide], the half-maximal inhibitory concentration (IC50) (usually the midpoint of a concentration-inhibition curve) came to 1100 nM.

Take `COC(=O)C(c1ccccc1)N1CCN(c2ccc(NC(=O)c3cccnc3)cc2)CC1` (centres unmarked) [Example 98, Phenyl-(4-{4-[(pyridine-3-carbonyl)-amino]-phenyl}-piperazin-1-yl)-acetic acid methyl ester]: the IC50 came to 12000 nM.

As for `COC(=O)C(c1ccccc1)N1CCN(c2ccc(NC(=O)c3ccccc3I)cc2F)CC1` (centres unmarked) [Example 99, {4-[2-Fluoro-4-(2-iodo-benzoylamino)-phenyl]-piperazin-1-yl}-phenyl-acetic acid methyl ester], the IC50 turned out to be 250 nM.

Turning to `CCNC(=O)C(c1ccccc1)N1CCN(c2ccc(NC(=O)c3cccnc3Br)cc2F)CC1` (centres unmarked) [Example 100, 2-Bromo-N-{4-[4-(ethylcarbamoyl-phenyl-methyl)-piperazin-1-yl]-3-fluoro-phenyl}-nicotinamide], the IC50 turned out to be 890 nM.

For the compound `COC(=O)C(c1ccccc1)N1CCN(c2ccc(NC(=O)c3ccco3)cc2)CC1` (centres unmarked) [Example 101, (4-{4-[(Furan-2-carbonyl)-amino]-phenyl}-piperazin-1-yl)-phenyl-acetic acid methyl ester], the IC50 is 20000 nM.

On to `COC(=O)C(c1ccccc1)N1CCN(c2ccc(NC(=O)c3ccoc3)cc2)CC1` (centres unmarked) [Example 102, (4-{4-[(Furan-3-carbonyl)-amino]-phenyl}-piperazin-1-yl)-phenyl-acetic acid methyl ester], for which the IC50 was determined as 20000 nM.

In the case of `COC(=O)C(c1ccccc1)N1CCN(c2ccc(NC(=O)c3ccsc3)cc2)CC1` (centres unmarked) [Example 103, Phenyl-(4-{4-[(thiophene-3-carbonyl)-amino]-phenyl}-piperazin-1-yl)-acetic acid methyl ester], the IC50 was 2500 nM.

`COC(=O)C(c1ccccc1)N1CCN(c2ccc(NC(=O)c3ccc[nH]3)cc2)CC1` (centres unmarked) [Example 104, Phenyl-(4-{4-[(1H-pyrrole-2-carbonyl)-amino]-phenyl}-piperazin-1-yl)-acetic acid methyl ester]: the IC50 is 7000 nM.

With `COC(=O)C(c1ccccc1)N1CCN(c2ccc(NC(=O)c3ccccn3)cc2)CC1` (centres unmarked) [Example 106, Phenyl-(4-{4-[(pyridine-2-carbonyl)-amino]-phenyl}-piperazin-1-yl)-acetic acid methyl ester], the IC50 was found to be 12000 nM.

On to `COC(=O)C(c1ccccc1)N1CCN(c2ccc(NC(=O)c3cncnc3)cc2)CC1` (centres unmarked) [Example 108, Phenyl-(4-{4-[(pyrimidine-5-carbonyl)-amino]-phenyl}-piperazin-1-yl)-acetic acid methyl ester], for which the concentration for half-maximal inhibition (IC50) is 26000 nM.

On to `COC(=O)C(c1ccccc1)N1CCN(c2ccc(NC(=O)CC(C)C)cc2)CC1` (centres unmarked) [Example 109, {4-[4-(3-Methyl-butyrylamino)-phenyl]-piperazin-1-yl}-phenyl-acetic acid methyl ester], for which the IC50 amounted to 6100 nM.

For `COC(=O)C(c1ccccc1)N1CCN(c2ccc(NC(=O)c3ccccc3Br)cc2)CC1` (centres unmarked) [Example 110, {4-[4-(2-Bromo-benzoylamino)-phenyl]-piperazin-1-yl}-phenyl-acetic acid methyl ester], the IC50 came out at 2400 nM.

For `CCN(CC)C(=O)C(c1ccccc1)N1CCN(c2ccc(NC(=O)c3ccccc3Br)cc2F)CC1` (centres unmarked) [Example 111, 2-Bromo-N-{4-[4-(diethylcarbamoyl-phenyl-methyl)-piperazin-1-yl]-3-fluoro-phenyl}-benzamide], the IC50 is 340 nM.

Take `CCC(CC)C(=O)N(C)c1ccc(N2CCN(C(C(=O)N(CC)CC)c3ccccc3)CC2)c(F)c1` (centres unmarked) [Example 112, N-{4-[4-(Diethylcarbamoyl-phenyl-methyl)-piperazin-1-yl]-3-fluoro-phenyl}-2-ethyl-N-methyl-butyramide]: the IC50 came to 450 nM.

As to `CCNC(=O)C(c1ccccc1)N1CCN(c2ccc(C(=O)NC(CC)CC)cc2F)CC1` (centres unmarked) [Example 113, 4-[4-(Ethylcarbamoyl-phenyl-methyl)-piperazin-1-yl]-N-(1-ethyl-propyl)-3-fluoro-benzamide], the IC50 came out at 5750 nM.

Take `COC(=O)C(c1ccccc1)N1CCN(c2ccc(C(=O)Nc3ccccc3)cc2)CC1` (centres unmarked) [Example 114, Phenyl-[4-(4-phenylcarbamoyl-phenyl)-piperazin-1-yl]-acetic acid methyl ester]: the IC50 is 10000 nM.

On to `CCC(CC)NC(=O)c1ccc(N2CCN(C(C(=O)OC)c3ccccc3)CC2)c(F)c1` (centres unmarked) [Example 115, {4-[4-(1-Ethyl-propylcarbamoyl)-2-fluoro-phenyl]-piperazin-1-yl}-phenyl-acetic acid methyl ester], for which the 50% inhibitory concentration (IC50) came to 3200 nM.

On to `CCC(CC)NC(=O)c1ccc(N2CCN(C(C(=O)OC)c3ccccc3)CC2)cc1` (centres unmarked) [Example 116, {4-[4-(1-Ethyl-propylcarbamoyl)-phenyl]-piperazin-1-yl}-phenyl-acetic acid methyl ester], for which the IC50 was found to be 10000 nM.

`CCNC(=O)C(c1ccccc1)C1CCN(c2ccc(C(=O)NC(CC)CC)cc2F)CC1` (centres unmarked) [Example 117, 4-[4-(Ethylcarbamoyl-phenyl-methyl)-piperidin-1-yl]-N-(1-ethyl-propyl)-3-fluoro-benzamide]: the IC50 amounted to 10000 nM.

For `CC(=O)N(c1ccccc1)c1ccc(N2CCN(C(C(=O)Nc3ccc4c(c3)CCC4)c3ccccc3)CC2)cc1` (centres unmarked) [Example 118, 2-{4-[4-(Acetyl-phenyl-amino)-phenyl]-piperazin-1-yl}-N-indan-5-yl-2-phenyl-acetamide], the IC50 stood at 3400 nM.

Consider `CCC(C)C(=O)Nc1ccc(N2CCC(C(C(=O)OC)c3ccccc3)CC2)cc1` (centres unmarked) [Example 120, {1-[4-(2-Methyl-butyrylamino)-phenyl]-piperidin-4-yl}-phenyl-acetic acid methyl ester], for which the IC50 came to 2400 nM.

For the compound `CCN(CC)C(=O)C(c1ccccc1)N1CCN(c2ccc(NC(=O)[C@H]3CCOC3)cc2C#N)CC1` (stereo partly drawn) [Example 122, (S)-Tetrahydro-furan-3-carboxylic acid {3-cyano-4-[4-(diethylcarbamoyl-phenyl-methyl)-piperazin-1-yl]-phenyl}-amide], the IC50 stood at 8 nM.

For `CCN(CC)C(=O)C(c1ccccc1)N1CCN(c2ccc(NC(=O)[C@@H]3CCOC3)cc2C#N)CC1` (stereo partly drawn) [Example 123, (R)-Tetrahydro-furan-3-carboxylic acid {3-cyano-4-[4-(diethylcarbamoyl-phenyl-methyl)-piperazin-1-yl]-phenyl}-amide], the IC50 amounted to 17 nM.

Take `CCC(CC)C(=O)Nc1ccc(N2CCN(C(C(=O)N(CC)CC)c3cc(Br)ccc3F)CC2)c(F)c1` (centres unmarked) [Example 124, N-(4-{4-[(5-Bromo-2-fluoro-phenyl)-diethylcarbamoyl-methyl]-piperazin-1-yl}-3-fluoro-phenyl)-2-ethyl-butyramide]: the concentration for half-maximal inhibition (IC50) came to 15 nM.

As for `CCN(CC)C(=O)C(c1ccccc1)N1CCN(c2ccc(NC(=O)C3(c4ccccc4)CCCC3)cc2F)CC1` (centres unmarked) [Example 125, 1-Phenyl-cyclopentanecarboxylic acid {4-[4-(diethylcarbamoyl-phenyl-methyl)-piperazin-1-yl]-3-fluoro-phenyl}-amide], the IC50 is 20 nM.

On to `CCN(CC)C(=O)C(c1ccccc1)C1CCN(c2ccc(NC(=O)[C@H]3CCOC3)cc2F)CC1` (stereo partly drawn) [Example 126, (S)-Tetrahydro-furan-3-carboxylic acid {4-[4-(diethylcarbamoyl-phenyl-methyl)-piperidin-1-yl]-3-fluoro-phenyl}-amide], for which the half-inhibitory concentration (IC50) turned out to be 25 nM.

In the case of `CCOC(=O)C(c1ccccc1)N1CCN(c2ccc(NC(=O)C(CC)CC)cc2F)CC1` (centres unmarked) [Example 127, {4-[4-(2-Ethyl-butyrylamino)-2-fluoro-phenyl]-piperazin-1-yl}-phenyl-acetic acid ethyl ester], the IC50 was 20 nM.

For the compound `CCN(CC)C(=O)C(c1ccccc1)N1CCN(c2ccc(NC(=O)c3ccnn3CC)cc2F)CC1` (centres unmarked) [Example 128, 2-Ethyl-2H-pyrazole-3-carboxylic acid {4-[4-(diethylcarbamoyl-phenyl-methyl)-piperazin-1-yl]-3-fluoro-phenyl}-amide], the IC50 turned out to be 35 nM.

With `CCC(CC)C(=O)Nc1ccc(N2CCN(C(C(=O)N(CC)CC)c3cccc(OC)c3)CC2)c(F)c1` (centres unmarked) [Example 129, N-(4-{4-[Diethylcarbamoyl-(3-methoxy-phenyl)-methyl]-piperazin-1-yl}-3-fluoro-phenyl)-2-ethyl-butyramide], the concentration for half-maximal inhibition (IC50) came out at 40 nM.

`CCNC(=O)C(c1ccccc1)C1CCN(c2ccc(NC(=O)C3CCCC3)cc2C#N)CC1` (centres unmarked) [Example 130, Cyclopentanecarboxylic acid {3-cyano-4-[4-(ethylcarbamoyl-phenyl-methyl)-piperidin-1-yl]-phenyl}-amide]: the IC50 was found to be 40 nM.

Regarding `CCN(CC)C(=O)C(c1ccccc1)C1CCN(c2ccc(NC(=O)c3cccnc3C)cc2F)CC1` (centres unmarked) [Example 131, N-{4-[4-(Diethylcarbamoyl-phenyl-methyl)-piperidin-1-yl]-3-fluoro-phenyl}-2-methyl-nicotinamide], the IC50 was found to be 50 nM.

Turning to `CCN(CC)C(=O)C(c1ccccc1)C1CCN(c2ccc(NC(=O)[C@@H]3CCOC3)cc2F)CC1` (stereo partly drawn) [Example 132, (R)-Tetrahydro-furan-3-carboxylic acid {4-[4-(diethylcarbamoyl-phenyl-methyl)-piperidin-1-yl]-3-fluoro-phenyl}-amide], the IC50 worked out at 55 nM.
